{"source": "patent US6387848B1", "about": "“Non-aqueous concentrated spreading oil composition” (priority 2000, dated 2002)", "key": {"Pyricularia oryzae [1]": {"tested_on": "Pyricularia oryzae", "type": "in vivo", "conditions": "added to the water, 52 days after treatment"}, "Pyricularia oryzae [2]": {"tested_on": "Pyricularia oryzae", "type": "in vivo", "conditions": "added to the water, 126 day after treatment"}, "[3]": {"conditions": "Granules 50 g/kg, dose 100 g/ha"}, "[4]": {"conditions": "Granules 50 g/kg, dose 250 g/ha"}, "[5]": {"conditions": "Granules 50 g/kg, dose 500 g/ha"}, "[6]": {"conditions": "Granules 50 g/kg, dose 1000 g/ha"}, "[7]": {"conditions": "SO 30 g/L (Example 1), dose 50 g/ha"}, "[8]": {"conditions": "SO 30 g/L (Example 1), dose 100 g/ha"}, "[9]": {"conditions": "SO 30 g/L (Example 1), dose 250 g/ha"}, "[10]": {"conditions": "SO 30 g/L (Example 1), dose 500 g/ha"}, "[11]": {"conditions": "SO 30 g/L (Example 1), dose 1000 g/ha"}}, "note": "Where two headings read alike, the source gives them in different places.", "data": [{"smiles": "C[C@H](Nc1c(-c2c(F)cc(F)cc2F)c(Cl)nc2ncnn12)C(F)(F)F", "note": "[(S)-Azolopyrimidine C, 5-chloro-6-(2,4,6-trifluorophenyl)-7-(1,1,1-trifluoroprop-2-ylamino)-[1,2,4]triazolo[1,5-a]pyrimidine]", "values": [{"measurement": "Percent rice leaf blast control, control (%)", "setting": "Pyricularia oryzae [1]; [3]", "value": 78, "unit": "%"}, {"measurement": "Percent rice leaf blast control, control (%)", "setting": "Pyricularia oryzae [1]; [4]", "value": 86, "unit": "%"}, {"measurement": "Percent rice leaf blast control, control (%)", "setting": "Pyricularia oryzae [1]; [5]", "value": 90, "unit": "%"}, {"measurement": "Percent rice leaf blast control, control (%)", "setting": "Pyricularia oryzae [1]; [6]", "value": 95, "unit": "%"}, {"measurement": "Percent rice leaf blast control, control (%)", "setting": "Pyricularia oryzae [1]; Granules 50 g/kg, dose 1500 g/ha", "value": 97, "unit": "%"}, {"measurement": "Percent rice leaf blast control, control (%)", "setting": "Pyricularia oryzae [1]; [7]", "value": 84, "unit": "%"}, {"measurement": "Percent rice leaf blast control, control (%)", "setting": "Pyricularia oryzae [1]; [8]", "value": 89, "unit": "%"}, {"measurement": "Percent rice leaf blast control, control (%)", "setting": "Pyricularia oryzae [1]; [9]", "value": 95, "unit": "%"}, {"measurement": "Percent rice leaf blast control, control (%)", "setting": "Pyricularia oryzae [1]; [10]", "value": 97, "unit": "%"}, {"measurement": "Percent rice leaf blast control, control (%)", "setting": "Pyricularia oryzae [1]; [11]", "value": 98, "unit": "%"}, {"measurement": "Percent rice danicle blast control, control (%)", "setting": "Pyricularia oryzae [2]; [3]", "value": 39, "unit": "%"}, {"measurement": "Percent rice danicle blast control, control (%)", "setting": "Pyricularia oryzae [2]; [4]", "value": 44, "unit": "%"}, {"measurement": "Percent rice danicle blast control, control (%)", "setting": "Pyricularia oryzae [2]; [5]", "value": 67, "unit": "%"}, {"measurement": "Percent rice danicle blast control, control (%)", "setting": "Pyricularia oryzae [2]; [6]", "value": 82, "unit": "%"}, {"measurement": "Percent rice danicle blast control, control (%)", "setting": "Pyricularia oryzae [2]; [7]", "value": 22, "unit": "%"}, {"measurement": "Percent rice danicle blast control, control (%)", "setting": "Pyricularia oryzae [2]; [8]", "value": 44, "unit": "%"}, {"measurement": "Percent rice danicle blast control, control (%)", "setting": "Pyricularia oryzae [2]; [9]", "value": 67, "unit": "%"}, {"measurement": "Percent rice danicle blast control, control (%)", "setting": "Pyricularia oryzae [2]; [10]", "value": 78, "unit": "%"}, {"measurement": "Percent rice danicle blast control, control (%)", "setting": "Pyricularia oryzae [2]; [11]", "value": 84, "unit": "%"}]}]}
